{
  "source": "patent US20210322384A1",
  "about": "“Method of Treatment for Ketamine Infusion” (Eleusis therapeutics us, inc., priority 2018, published 2021)",
  "origin": "cited, not measured here",
  "key": {"patients [1]": {"system": "patients", "conditions": "for improvement in MADRS score relative to standard antidepressants alone: plus standard antidepressants"}, "patients [2]": {"system": "patients", "conditions": "current state of the art ketamine treatments; industry standard"}},
  "note": "Where two headings read alike, the source gives them in different places.",
  "data": [
    {"smiles": "CN[C@]1(c2ccccc2Cl)CCCCC1=O", "note": "[esketamine]", "values": [
      {"measurement": "reduction in MADRS score relative to control group", "setting": "patients [1]; after 25 days", "result": "did not result in any significant reduction"},
      {"measurement": "improvement in MADRS score relative to standard antidepressants alone", "setting": "patients [1]; at 24 hours after intranasal 84 mg", "result": "significantly greater improvement"},
      {"measurement": "improvement in MADRS score relative to standard antidepressants alone", "setting": "patients [1]; at four hours after intranasal 84 mg", "result": "significantly greater improvement"},
      {"measurement": "side effects of nasal spray protocol", "setting": "patients [1]; intranasal 84 mg aerosol spray", "result": "significant side effects"}
    ]},
    {"smiles": "CNC1(c2ccccc2Cl)CCCCC1=O", "note": "(centres unmarked) [ketamine]", "values": [
      {"measurement": "response rate in alleviating depression symptoms", "setting": "patients [2]", "result": "~70", "unit": "%"}
    ]}
  ]
}
